In brackets after ≈: the same amount, converted by molar mass.
How the values were obtained:
[1] = biological target: TREK-1/AAK M2-C (Mus musculus, UniProt O88454+P97438); assay: TEVC of chimera TREK-1/AAK M2-C; format: cell-based; details: Xenopus oocytes
[2] = biological target: T1, K2P2.1(TREK-1) W275S (Mus musculus, UniProt P97438, W290S); assay: TEVC of C-type gate activating mutant W275S; format: cell-based; details: Xenopus oocytes
T1 construct: expressed in transfected cells; host or cells: Xenopus laevis oocytes, mRNA injected
T1 sequence (P97438 1-411 isoform P97438-2 W275S): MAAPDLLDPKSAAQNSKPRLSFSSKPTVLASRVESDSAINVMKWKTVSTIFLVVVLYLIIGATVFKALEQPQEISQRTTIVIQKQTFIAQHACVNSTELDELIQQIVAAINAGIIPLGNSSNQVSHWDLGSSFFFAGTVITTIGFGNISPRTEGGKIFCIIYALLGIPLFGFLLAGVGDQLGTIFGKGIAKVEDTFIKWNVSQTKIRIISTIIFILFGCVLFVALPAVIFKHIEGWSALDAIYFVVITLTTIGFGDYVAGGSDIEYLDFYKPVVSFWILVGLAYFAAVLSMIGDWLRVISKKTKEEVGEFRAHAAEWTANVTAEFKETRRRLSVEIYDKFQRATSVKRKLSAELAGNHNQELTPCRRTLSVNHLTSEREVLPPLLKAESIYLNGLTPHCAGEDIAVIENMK
Text: (§1) Diverse types of physical and chemical stimuli activate K2P2.1(TREK-1) by stabilizing the C-type gate and switching the channel into a “leak” mode that is characterized by a loss of outward rectification of the potassium current.[6],[8] Accordingly, we used inside-out patch clamp experiments of K2P2.1(TREK-1) expressed in HEK293 cells to test whether BL-1249 acts on the C-type gate. […] Together with previous single point concentration studies showing the insensitivity of K2P2.1(TREK-1) W275S in mammalian cells,[40] our data provide definitive evidence that BL-1249 activates K2P2.1(TREK-1) by stimulating the C-type gate. […]
(§2) Xenopus laevis oocytes were harvested in accordance with UCSF IACUC protocol AN129690 and digested in calcium-free ND-96 (96 mM NaCl, 2 mM KCl, 3.8 mM MgCl2) immediately following harvest, as previously described.[6],[10] […] Defolliculated stage V–VI oocytes were injected with 0.2–6.0 ng of mRNA in 50 nL, and currents were recorded 24–48 h after injection. mRNA was synthesized from plasmid DNA using mMessage mMachine Kit (T7 promoter, Ambion, Life Technologies) and purified using RNEasy Kit (Qiagen). […] Once stabilized basal currents were recorded, compounds were perfused at various concentrations in standard ND96 and currents were allowed to increase to stabilization before recording final current. […]

[3] = biological target: T2, K2P2.1(TREK-1) G137I (Mus musculus, UniProt P97438, G152I); assay: TEVC of C-type gate activating mutant G137I; format: cell-based; details: Xenopus oocytes
T2 construct: expressed in transfected cells; host or cells: Xenopus laevis oocytes, mRNA injected
T2 sequence (P97438 1-411 isoform P97438-2 G137I): as the sequence (P97438 1-411 isoform P97438-2 W275S) above, with G137I, S275W counted along it
Text: as §1, §2

[4] = biological target: T3, K2P2.1(TREK-1)Δ308 (Mus musculus, UniProt P97438); assay: TEVC of C-terminal truncation at residue 308; format: cell-based; details: Xenopus oocytes, saturation not reached, fit with upper boundary of 15 (I/I0)
T3 construct: and at residue 308, K2P2.1(TREK-1)Δ308; expressed in transfected cells; host or cells: Xenopus laevis oocytes, mRNA injected
T3 sequence (P97438 1-308 isoform P97438-2): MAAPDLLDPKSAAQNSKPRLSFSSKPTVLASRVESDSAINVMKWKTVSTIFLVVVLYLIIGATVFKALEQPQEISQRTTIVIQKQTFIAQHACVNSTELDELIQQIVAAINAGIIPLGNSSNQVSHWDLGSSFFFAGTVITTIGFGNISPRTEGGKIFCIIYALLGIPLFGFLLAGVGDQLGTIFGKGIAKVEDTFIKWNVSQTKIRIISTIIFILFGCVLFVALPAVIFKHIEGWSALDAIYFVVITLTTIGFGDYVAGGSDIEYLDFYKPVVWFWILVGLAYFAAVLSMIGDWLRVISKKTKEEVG
Text: (§3) Constructs for murine K2P channels, including K2P2.1(TREK-1) (Gene ID 16526), K2P10.1(TREK-2) (Gene ID 72258), K2P4.1(TRAAK) (Gene ID 16528), K2P5.1(TASK-2) (Gene ID 16529), K2P3.1(TASK-1) (Gene ID 16527), K2P9.1(TASK-3) (Gene ID 223604), and K2P18.1(TRESK) (Gene ID 332396) in pGEMHE/pMO, were used for Xenopus oocyte experiments as previously described.[10],[26] Murine K2P2.1(TREK-1) (Gene ID 16526) was expressed in HEK-293 cells using a pIRES-EGFP construct as previously described.[26] Murine K2P13.1(THIK-1) (Gene ID 217826) and K2P1.1(TWIK-1) (Gene ID 16525) were cloned into pGEMHE/pMO for use in Xenopus oocytes. […]
as §2

[5] = biological target: T4, K2P13.1(THIK-1) (Mus musculus, UniProt Q8R1P5); assay: TEVC of K2P13.1(THIK-1) in Xenopus oocytes; format: cell-based; details: concentrations up to the solubility limit (∼80 μM)
T4 construct: expressed in transfected cells; host or cells: Xenopus laevis oocytes (mRNA injection, pGEMHE/pMO)
T4 sequence (Q8R1P5 whole entry): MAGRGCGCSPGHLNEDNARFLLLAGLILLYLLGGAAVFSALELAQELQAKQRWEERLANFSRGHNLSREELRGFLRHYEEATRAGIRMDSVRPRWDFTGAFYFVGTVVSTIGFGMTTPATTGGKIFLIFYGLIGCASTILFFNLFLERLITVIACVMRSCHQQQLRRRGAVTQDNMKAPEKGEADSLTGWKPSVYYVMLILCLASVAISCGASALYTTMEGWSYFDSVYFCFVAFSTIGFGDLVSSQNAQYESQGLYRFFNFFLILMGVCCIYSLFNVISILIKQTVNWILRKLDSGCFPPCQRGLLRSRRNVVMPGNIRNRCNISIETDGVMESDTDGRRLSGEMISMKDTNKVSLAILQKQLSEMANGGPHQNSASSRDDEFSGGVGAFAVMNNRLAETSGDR
Procedure: (§4) BL-1249 activates K2P2.1(TREK-1)[18],[40] and K2P10.1(TREK-2),[7] but its effects on other K2P channels have not been characterized. […] In order to test if the original 10 μM assay had missed BL-1249 effects in other K2P channels, we tested concentrations of BL-1249 up to the solubility limit (∼80 μM) against the other K2P subfamily representatives. […]
as §2, with “current. Fold activation upon compound application is expressed as I/I0 (0 mV), derived from the current at 0 mV in the presence of compound divided by the basal current at 0 mV in standard ND96 without compound. Data were analyzed and plotted using Graphpad Prism Version 5 (GraphPad Software, San Diego California USA, www.graphpad.com).” for “current.”

[6] = BL-1249 solubility limit in recording solution; format: physicochemical; details: standard ND96 recording solution
Procedure: BL-1249 activates K2P2.1(TREK-1)[18],[40] and K2P10.1(TREK-2),[7] but its effects on other K2P channels have not been characterized. […] In order to test if the original 10 μM assay had missed BL-1249 effects in other K2P channels, we tested concentrations of BL-1249 up to the solubility limit (∼80 μM) against the other K2P subfamily representatives.

[7] = biological target: T5, K2P1.1(TWIK-1) (Mus musculus, UniProt O08581); assay: TEVC of K2P1.1(TWIK-1) in Xenopus oocytes; format: cell-based; details: concentrations up to the solubility limit (∼80 μM)
T5 construct: expressed in transfected cells; host or cells: Xenopus laevis oocytes injected with mRNA made from pGEMHE/pMO
T5 sequence (O08581 whole entry): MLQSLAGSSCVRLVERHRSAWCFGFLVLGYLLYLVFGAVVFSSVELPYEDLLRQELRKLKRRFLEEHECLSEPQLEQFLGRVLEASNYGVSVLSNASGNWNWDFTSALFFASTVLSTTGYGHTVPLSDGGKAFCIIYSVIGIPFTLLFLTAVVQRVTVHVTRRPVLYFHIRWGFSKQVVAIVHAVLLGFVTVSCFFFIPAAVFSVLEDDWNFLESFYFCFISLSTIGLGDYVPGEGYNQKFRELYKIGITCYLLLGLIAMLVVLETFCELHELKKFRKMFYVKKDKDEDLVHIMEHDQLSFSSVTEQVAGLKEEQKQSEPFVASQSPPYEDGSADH
Procedure: as §4
as §2, with “current. Fold activation upon compound application is expressed as I/I0 (0 mV), derived from the current at 0 mV in the presence of compound divided by the basal current at 0 mV in standard ND96 without compound. Data were analyzed and plotted using Graphpad Prism Version 5 (GraphPad Software, San Diego California USA, www.graphpad.com).” for “current.”

[8] = biological target: T6, K2P10.1(TREK-2) (Mus musculus, UniProt Q8BUW1); assay: TEVC of K2P10.1(TREK-2) in Xenopus oocytes; format: cell-based
T6 construct: expressed in transfected cells; host or cells: Xenopus laevis oocytes injected with mRNA made from pGEMHE/pMO
T6 sequence (Q8BUW1 whole entry): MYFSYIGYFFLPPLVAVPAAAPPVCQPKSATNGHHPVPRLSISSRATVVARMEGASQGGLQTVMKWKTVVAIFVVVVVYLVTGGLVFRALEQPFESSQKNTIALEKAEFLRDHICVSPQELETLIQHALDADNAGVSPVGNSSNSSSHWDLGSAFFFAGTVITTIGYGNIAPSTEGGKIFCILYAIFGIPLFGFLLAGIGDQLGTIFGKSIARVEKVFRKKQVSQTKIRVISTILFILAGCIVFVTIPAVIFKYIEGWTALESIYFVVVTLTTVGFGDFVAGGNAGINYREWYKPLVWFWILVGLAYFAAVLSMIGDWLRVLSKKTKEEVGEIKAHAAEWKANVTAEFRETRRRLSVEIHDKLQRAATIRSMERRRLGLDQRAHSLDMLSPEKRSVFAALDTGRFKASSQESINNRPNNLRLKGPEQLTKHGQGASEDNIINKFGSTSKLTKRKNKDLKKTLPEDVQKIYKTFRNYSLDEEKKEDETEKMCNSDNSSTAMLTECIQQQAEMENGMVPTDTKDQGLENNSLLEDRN
Text: as §3, §2

TREK-1/AAK M2-C, sequence (P97438 16-167): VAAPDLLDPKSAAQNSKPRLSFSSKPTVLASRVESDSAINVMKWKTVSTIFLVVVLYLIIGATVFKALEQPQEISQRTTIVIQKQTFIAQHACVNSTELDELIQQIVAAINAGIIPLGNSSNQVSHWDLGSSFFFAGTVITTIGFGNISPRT
TREK-1/AAK M2-C, sequence (O88454 115-398): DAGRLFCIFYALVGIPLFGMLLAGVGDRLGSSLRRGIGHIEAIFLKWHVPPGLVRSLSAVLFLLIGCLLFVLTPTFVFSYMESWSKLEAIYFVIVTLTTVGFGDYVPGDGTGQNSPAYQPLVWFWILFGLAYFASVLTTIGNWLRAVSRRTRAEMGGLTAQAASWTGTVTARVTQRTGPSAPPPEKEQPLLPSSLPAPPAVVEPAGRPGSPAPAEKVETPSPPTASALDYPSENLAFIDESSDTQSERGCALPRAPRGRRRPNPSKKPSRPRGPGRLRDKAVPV

EC50 [2] | sensitivity of K2P2.1(TREK-1) W275S to compound [2] | EC50 [3] | sensitivity of K2P2.1(TREK-1) G137I to compound [3] | EC50 [4] | activation of K2P13.1(THIK-1) [5] | solubility [6] | activation of K2P1.1(TWIK-1) [7] | EC50 ([8]; I/I0 at 0 mV) | K2P10.1(TREK-2) current response ([8]; extracellular application of 10 μM) | SMILES | EC50 [1]
 |  |  |  |  |  |  |  |  |  | CS(=O)(=O)Nc1ccc(C(=O)NCc2ccc(Cl)cc2Cl)cc1 [ML335] | > 100 µM
> 60 µM | insensitive | > 60 µM | insensitive | 35 ± 8 µM | failed to find evidence for activation | ~80 µM (≈ 23.3 µg/mL) | failed to find evidence for activation | 8 ± 0.8 µM | clear activation responses | c1ccc(-c2nnn[nH]2)c(Nc2cccc3c2CCCC3)c1 [BL-1249, (5,6,7,8-tetrahydro-naphthalen-1-yl)-[2-(1H-tetrazol-5-yl)-phenyl]-amine] | 

— publication PMC6302903, “Protein and Chemical Determinants of BL-1249 Action and Selectivity for K2P Channels” (ACS Chemical Neuroscience, 2018)
